Measured values: ChEMBL document CHEMBL5104187, “Discovery of 2-(1-(3-Chloro-4-cyanophenyl)-1H-pyrazol-3-yl)acetamides as Potent, Selective, and Orally Available Antagonists Targeting the Androgen Receptor” (J Med Chem, 2022)
Calls of active or inactive are those of the source. The rule behind the calls is not given here.

What was measured:
[1] = target: T1, Androgen receptor (Homo sapiens, UniProt P10275); test: Antagonist activity at androgen receptor (unknown origin) in human LNCap-ARR2PB-eGFP cells by measuring fluorescence intensity measured after 3 days by transcriptional assay; assay type: cell-based
T1 sequence (P10275 whole entry): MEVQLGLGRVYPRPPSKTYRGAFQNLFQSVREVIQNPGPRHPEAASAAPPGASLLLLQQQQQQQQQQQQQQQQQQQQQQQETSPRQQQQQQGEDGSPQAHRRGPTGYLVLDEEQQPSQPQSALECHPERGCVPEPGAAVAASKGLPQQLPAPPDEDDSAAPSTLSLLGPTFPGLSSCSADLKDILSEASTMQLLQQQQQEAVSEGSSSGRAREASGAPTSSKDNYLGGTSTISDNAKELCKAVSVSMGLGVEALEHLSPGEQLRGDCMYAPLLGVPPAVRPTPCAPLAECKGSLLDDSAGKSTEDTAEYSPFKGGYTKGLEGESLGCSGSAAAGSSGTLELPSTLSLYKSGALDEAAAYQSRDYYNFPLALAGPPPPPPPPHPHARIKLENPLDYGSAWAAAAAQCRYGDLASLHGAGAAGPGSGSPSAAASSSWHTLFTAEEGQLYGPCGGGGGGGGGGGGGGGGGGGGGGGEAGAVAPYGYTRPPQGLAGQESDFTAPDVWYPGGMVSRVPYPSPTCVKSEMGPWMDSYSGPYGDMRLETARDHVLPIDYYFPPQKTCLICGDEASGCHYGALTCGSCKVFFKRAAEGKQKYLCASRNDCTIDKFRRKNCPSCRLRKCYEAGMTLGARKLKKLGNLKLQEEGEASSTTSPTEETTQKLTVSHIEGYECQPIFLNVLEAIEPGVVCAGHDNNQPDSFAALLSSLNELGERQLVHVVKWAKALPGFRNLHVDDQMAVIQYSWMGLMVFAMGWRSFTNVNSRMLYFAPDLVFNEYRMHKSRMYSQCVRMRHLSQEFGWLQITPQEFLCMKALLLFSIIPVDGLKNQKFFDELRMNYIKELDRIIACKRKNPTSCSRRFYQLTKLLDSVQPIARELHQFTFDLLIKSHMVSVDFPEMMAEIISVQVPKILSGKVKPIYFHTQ

[2] = Antagonist activity at mineralocorticoid receptor (unknown origin) transfected in PC-3 cells assessed as inhibition of […]-stimulated transcriptional activity after 3 days by dual luciferase reporter assay; assay type: cell-based; conditions: Homo sapiens, PC-3, 72 h
[3] = Inhibition of PSA secretion in human LNCaP ARR2PB-eGFP cells measured after 3 days by immuno assay; assay type: functional, cell-based; conditions: 72 h
[4] = Cytotoxicity against human Chang liver cells assessed as inhibition of cell proliferation by MTT assay; assay type: toxicity, cell-based
[5] = Cytotoxicity against human GES1 cells assessed as inhibition of cell proliferation by MTT assay; assay type: toxicity, cell-based
[6] = system: LNCaP; test: Cytotoxicity against human LNCAP cells assessed as inhibition of cell proliferation by MTT assay; assay type: functional, cell-based
[7] = target: T2, Androgen receptor (Homo sapiens) (UniProt P10275); test: Antagonist activity at human AR AF2 assessed as inhibition of fluorescent-labelled D11-FxxLF peptide Co-activator to receptor by TR-FRET assay; conditions: filed as antagonist
T2 sequence (whole entry): T1 sequence (P10275 whole entry)

[8] = target: T3, Androgen receptor (Homo sapiens, UniProt P10275, F877L/T878A); test: Antagonist activity at androgen receptor F876L/T877A mutant in human PC-3 cells assessed as inhibition of transcriptional activity measured after 24 hrs by luminescence based microplate reader assay; assay type: cell-based
T3 sequence (P10275 whole entry F877L/T878A): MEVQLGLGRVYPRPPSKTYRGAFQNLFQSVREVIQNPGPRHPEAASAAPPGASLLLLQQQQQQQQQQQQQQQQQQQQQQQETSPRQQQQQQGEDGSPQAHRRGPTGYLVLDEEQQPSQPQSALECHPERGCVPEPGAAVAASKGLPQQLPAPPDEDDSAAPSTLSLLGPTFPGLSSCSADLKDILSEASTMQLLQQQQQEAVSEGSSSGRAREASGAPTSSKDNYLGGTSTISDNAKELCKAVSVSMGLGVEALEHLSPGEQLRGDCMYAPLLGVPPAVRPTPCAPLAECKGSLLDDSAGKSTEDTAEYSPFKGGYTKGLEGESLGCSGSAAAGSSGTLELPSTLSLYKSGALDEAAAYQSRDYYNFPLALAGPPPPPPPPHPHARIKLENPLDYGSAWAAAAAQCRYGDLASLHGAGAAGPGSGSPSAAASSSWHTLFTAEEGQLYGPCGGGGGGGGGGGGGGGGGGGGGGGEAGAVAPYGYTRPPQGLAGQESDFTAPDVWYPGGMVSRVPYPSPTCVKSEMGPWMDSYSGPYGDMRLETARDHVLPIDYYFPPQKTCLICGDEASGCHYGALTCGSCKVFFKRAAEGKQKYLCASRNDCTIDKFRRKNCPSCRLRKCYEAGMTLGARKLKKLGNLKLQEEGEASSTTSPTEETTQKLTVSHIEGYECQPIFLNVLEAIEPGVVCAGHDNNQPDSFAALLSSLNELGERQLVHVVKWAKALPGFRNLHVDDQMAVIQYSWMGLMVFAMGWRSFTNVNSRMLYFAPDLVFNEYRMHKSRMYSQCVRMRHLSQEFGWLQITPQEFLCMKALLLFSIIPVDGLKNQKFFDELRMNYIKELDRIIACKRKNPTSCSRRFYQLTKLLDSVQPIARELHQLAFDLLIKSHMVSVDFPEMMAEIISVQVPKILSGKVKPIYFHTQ

[9] = target: T4, Androgen receptor (Homo sapiens, UniProt P10275, F877L); test: Antagonist activity at androgen receptor F877L mutant in human PC-3 cells assessed as inhibition of transcriptional activity measured after 24 hrs by luminescence based microplate reader assay; assay type: cell-based
T4 sequence (P10275 whole entry F877L): as the sequence (P10275 whole entry F877L/T878A) above, with A878T counted along it

[10] = target: T4, Androgen receptor; test: Antagonist activity at androgen receptor F877L mutant (unknown origin) expressed in PC-3 cells assessed as inhibition of transcriptional activity measured after 24 hrs by dual luciferase assay; assay type: cell-based
[11] = Antagonist activity at androgen receptor T878G mutant (unknown origin) expressed in PC-3 cells assessed as inhibition of transcriptional activity measured after 24 hrs by dual luciferase assay; assay type: cell-based; conditions: Homo sapiens, PC-3, 24 h
[12] = target: T3, Androgen receptor; test: Antagonist activity at androgen receptor F877L/T877A dual mutant (unknown origin) expressed in PC-3 cells assessed as inhibition of transcriptional activity measured after 24 hrs by dual luciferase assay; assay type: cell-based
[13] = target: T1, Androgen receptor
[14] = system: LNCaP; test: Antitumor activity against human LNCAP cells xenografted in CB17-SCID mouse model assessed as inhibition of tumor growth at 40 mg/kg/day, po measured upto 4 weeks; assay type: functional, organism-based
[15] = system: LNCaP; test: Antitumor activity against human LNCAP cells xenografted in CB17-SCID mouse model assessed as inhibition of tumor growth at 100 mg/kg/day, po measured upto 4 weeks; assay type: functional, organism-based
[16] = Toxicity in CB17 SCID mouse xenografted with human LNCAP cells assessed as body weight loss at 100 mg/kg/day,po measured upto 4 weeks; assay type: organism-based; conditions: in vivo, 672 h

IC50 [1]	SMILES	other results
> 25 µM	N#Cc1ccc(-n2ccc(CNC(=O)c3ccc(C(F)(F)F)cc3)n2)cc1C(F)(F)F	–
0.45 µM	Cc1cn(-c2ccc(C#N)c(C(F)(F)F)c2)nc1CNC(=O)c1ccc([N+](=O)[O-])cc1	–
> 25 µM	N#Cc1ccc(-n2ccc(NC(=O)Nc3ccc(F)cc3)n2)cc1C(F)(F)F	–
> 25 µM	N#Cc1ccc(-n2ccc(C(=O)Nc3ccc(F)cc3)n2)cc1C(F)(F)F	–
0.22 µM	Cc1cn(-c2ccc(C#N)c(C(F)(F)F)c2)nc1CNC(=O)c1ccc(F)cc1	–
–	CNC(=O)c1ccc(N2C(=S)N(c3ccc(C#N)c(C(F)(F)F)c3)C(=O)C2(C)C)cc1F [ENZALUTAMIDE]	IC50 [2]: 0.13 µM; IC50 [3]: 0.48 µM; IC50 [4]: 64.7 µM; IC50 [5]: 96.9 µM; IC50 [6]: 26.3 µM
16.2 µM	N#Cc1ccc(-n2cc(C(F)(F)F)c(CNC(=O)c3ccc(F)cc3)n2)cc1C(F)(F)F	–
> 25 µM	N#Cc1ccc(-n2ccc(CNC(=O)Nc3ccc(F)cc3)n2)cc1C(F)(F)F	–
4.53 µM	Cc1ccc(NC(=O)Cc2ccn(-c3ccc(C#N)c(C(F)(F)F)c3)n2)cc1	–
> 25 µM	CNC(=O)c1ccc(C(=O)NCc2ccn(-c3ccc(C#N)c(C(F)(F)F)c3)n2)cc1F	–
1.85 µM	N#Cc1ccc(-n2ccc(CNC(=O)c3ccc([N+](=O)[O-])cc3)n2)cc1C(F)(F)F	–
0.05 µM	N#Cc1ccc(NC(=O)Cc2ccn(-c3ccc(C#N)c(C(F)(F)F)c3)n2)cc1	–
> 25 µM	N#Cc1ccc(-n2ccc(CC(=O)Nc3ccncc3)n2)cc1C(F)(F)F	–
6.34 µM	N#Cc1cc(NC(=O)Cc2ccn(-c3ccc(C#N)c(C(F)(F)F)c3)n2)ccc1F	–
14.9 µM	Cc1cn(-c2ccc(C#N)c(C(F)(F)F)c2)nc1CNC(=O)c1ccc(C#N)cc1	–
0.12 µM	N#Cc1ccc(-n2ccc(CC(=O)Nc3ccc(F)cc3)n2)cc1C(F)(F)F	Activity [7]: Active; IC50 [8]: 0.25 µM; IC50 [2]: 4.43 µM; IC50 [9]: 0.91 µM; IC50 [3]: 3.91 µM; IC50 [10]: 0.91 µM; IC50 [4]: > 1000 µM; IC50 [11]: 0.08 µM; IC50 [12]: 0.25 µM; Kd [13]: 10 µM; IC50 [5]: > 1000 µM; IC50 [6]: 5.85 µM
> 25 µM	N#Cc1ccc(C(=O)NCCc2ccn(-c3ccc(C#N)c(C(F)(F)F)c3)n2)cc1	–
0.08 µM	N#Cc1ccc(-n2ccc(CC(=O)Nc3ccc([N+](=O)[O-])cc3)n2)cc1C(F)(F)F	–
> 25 µM	N#Cc1ccc(-n2ccc(CCNC(=O)c3ccc([N+](=O)[O-])cc3)n2)cc1C(F)(F)F	–
> 25 µM	CC(C)(O)c1ccc(C(=O)NCc2ccn(-c3ccc(C#N)c(C(F)(F)F)c3)n2)cc1	–
0.3 µM	N#Cc1ccc(C(=O)NCc2ccn(-c3ccc(C#N)c(C(F)(F)F)c3)n2)cc1	–
> 25 µM	N#Cc1ccc(NC(=O)c2ccn(-c3ccc(C#N)c(C(F)(F)F)c3)n2)cc1	–

IC50 [1]	SMILES	other results
0.36 µM	O=C(Cc1ccn(-c2ccc([N+](=O)[O-])c(C(F)(F)F)c2)n1)Nc1ccc(F)nc1	–
1.15 µM	N#Cc1ccc(-n2ccc(CNC(=O)c3ccc(Cl)cc3)n2)cc1C(F)(F)F	–
0.78 µM	N#Cc1ccc(-n2ccc(CNC(=O)c3ccc(F)nc3)n2)cc1C(F)(F)F	–
2.57 µM	O=C(Cc1ccn(-c2ccc([N+](=O)[O-])c(C(F)(F)F)c2)n1)Nc1ccc(F)cn1	–
0.34 µM	O=C(Cc1ccn(-c2ccc([N+](=O)[O-])c(C(F)(F)F)c2)n1)Nc1ccc(F)cc1	–
> 25 µM	N#Cc1ccc(C(=O)NCCCc2ccn(-c3ccc(C#N)c(C(F)(F)F)c3)n2)cc1	–
> 25 µM	N#Cc1ccc(-n2ccc(CNS(=O)(=O)c3ccc(F)cc3)n2)cc1C(F)(F)F	–
> 25 µM	N#Cc1ccc(-n2ccc(NC(=O)c3ccc(F)cc3)n2)cc1C(F)(F)F	–
> 25 µM	N#Cc1ccc(-n2ccc(CCNC(=O)c3ccc(F)cc3)n2)cc1C(F)(F)F	–
0.76 µM	N#Cc1ccc(-n2ccc(CNC(=O)c3ccc(F)cc3)n2)cc1C(F)(F)F	–
> 25 µM	N#Cc1ccc(-n2cc(-c3ccccc3)c(CNC(=O)c3ccc(F)cc3)n2)cc1C(F)(F)F	–
0.34 µM	N#Cc1ccc(-n2ccc(CC(=O)Nc3ccc(F)cn3)n2)cc1C(F)(F)F	–
> 25 µM	CC(O)c1cc(C(=O)NCc2ccn(-c3ccc(C#N)c(C(F)(F)F)c3)n2)n[nH]1 (stereo unspecified)	–
0.21 µM	N#Cc1ccc(-n2ccc(CC(=O)Nc3ccc(F)c(F)c3)n2)cc1C(F)(F)F	–
> 25 µM	N#Cc1ccc(-n2ccc(CCCNC(=O)c3ccc(F)cc3)n2)cc1C(F)(F)F	–
5.82 µM	N#Cc1ccc(-n2ccc(CNC(=O)c3ccc(F)cn3)n2)cc1C(F)(F)F	–
–	CC(O)c1cc(C(=O)N[C@H](C)Cn2ccc(-c3ccc(C#N)c(Cl)c3)n2)n[nH]1 (stereo partly specified)	IC50 [11]: 0.69 µM
> 25 µM	N#Cc1ccc(-n2ccc(CCCNC(=O)c3ccc([N+](=O)[O-])cc3)n2)cc1C(F)(F)F	–
0.14 µM	N#Cc1ccc(-n2ccc(CC(=O)Nc3ccc(F)nc3)n2)cc1C(F)(F)F	Activity [7]: Active; IC50 [8]: 1.12 µM; IC50 [2]: 16.3 µM; IC50 [9]: 1.31 µM; IC50 [3]: 1.75 µM; IC50 [10]: 1.31 µM; IC50 [4]: > 1000 µM; IC50 [11]: 0.31 µM; IC50 [12]: 1.12 µM; Kd [13]: 8.99 µM; IC50 [5]: > 1000 µM; IC50 [6]: 8.84 µM
> 25 µM	N#Cc1ccc(-n2ccc(C(=O)Nc3ccc(F)nc3)n2)cc1C(F)(F)F	–
9.2 µM	COc1ccc(NC(=O)Cc2ccn(-c3ccc(C#N)c(C(F)(F)F)c3)n2)cc1	–
> 25 µM	N#Cc1ccc(-n2ccc(C(=O)Nc3ccc(F)cn3)n2)cc1C(F)(F)F	–

SMILES	IC50 [1]	other results
N#Cc1ccc(-n2ccc(C(=O)Nc3ccncc3)n2)cc1C(F)(F)F	> 25 µM	–
N#Cc1ccc(-n2ccc(CC(=O)Nc3ccc(F)cn3)n2)cc1Cl	0.17 µM	–
N#Cc1ccc(-n2ccc(CC(=O)Nc3ccc(F)nc3)n2)cc1Cl	0.069 µM	Activity [7]: Active; Activity [14]: Active; Activity [15]: Active; IC50 [8]: 0.27 µM; IC50 [2]: 5.54 µM; Activity [16]: Non-Toxic; IC50 [9]: 0.17 µM; IC50 [3]: 0.89 µM; IC50 [10]: 0.46 µM; IC50 [4]: > 1000 µM; IC50 [11]: 0.045 µM; IC50 [12]: 0.27 µM; Kd [13]: 20.5 µM; IC50 [5]: > 1000 µM; IC50 [6]: 6.23 µM
N#Cc1ccc(-n2ccc(CC(=O)Nc3ccc(F)cc3)n2)cc1Cl	0.22 µM	–
